The numbers were not newly measured in patent US20210023011A1, “METHOD AND SYSTEM FOR PRODUCING HIGH PURITY VANCOMYCIN HYDROCHLORIDE” (ZHEJIANG MEDICINE CO., LTD, priority 2013, published 2021), which cites them from elsewhere.

Where a name gives a salt, the structure may show the parent alone.

For series [1] the following is noted: lyophilized powder.

Take `CN[C@H](CC(C)C)C(=O)N[C@H]1C(=O)N[C@@H](CC(N)=O)C(=O)N[C@H]2C(=O)N[C@H]3C(=O)N[C@H](C(=O)N[C@H](C(=O)O)c4cc(O)cc(O)c4-c4cc3ccc4O)[C@H](O)c3ccc(c(Cl)c3)Oc3cc2cc(c3O[C@@H]2O[C@H](CO)[C@@H](O)[C@H](O)[C@H]2O[C@H]2C[C@](C)(N)[C@H](O)[C@H](C)O2)Oc2ccc(cc2Cl)[C@H]1O` [vancomycin hydrochloride, Vancomycin hydrochloride]: the “decrease of chromatographic purity” value (lyophilization at low temperature) was not below 0.5%. The “decrease of purity level of the solution” value (vacuum drying at 40° C. within 8 hours) is “more than 1.0%”. For the same molecule, in series [1], the solubility in alcohol result is on record as “slightly soluble” and the solubility in water entry was “freely soluble”.
